These results are taken from patent publication EP0326331B1, “Substituted quinolines and cinnolines” (Dow AgroSciences LLC, priority 1988, dated 1989).

One assay deals with CUCURBIT DOWNY MILDEW. Briefly: Greenhouse combination test with known fungicide, foliar spray. The note with it: 1-9 rating scale.
A further assay deals with CUCURBIT POWDERY MILDEW. The description is as above. The settings on record: 1-9 rating scale, time 4 hours.
The subject of assay [1] is Botrytis cinerea (gray mold). Briefly: Test 1 greenhouse foliar spray screen, gray mold on grape berries. The format is in vivo. The settings on record: for GRAY MOLD: disease control rating, spray on grape berries, 400 ppm (+++ at 100 ppm).
A further assay has as its system corn rootworm. The assay can be described thus: Mite/insect screen, CRW. The note with it: percent mortality, read-out: CRW RESULTS %. The class given is in vivo. In short, it runs like this:
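Corn rootworm mortality (%) was evaluated following standard exposure times. Test material was emulsified by dissolution in acetone/alcohol (1:1) containing sulfonate/nonionic emulsifier blends TOXIMUL R (23 g/L) and TOXIMUL S (13 g/L), and water-diluted to the indicated doses.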

For assay [2], the system named is Twospotted spider mites (Tetranychus urticae Koch). Briefly: Mite/insect screen, SM. The class given is in vivo. The note with it: Tetranychus urticae, percent mortality, read-out: SM RESULTS %. A digest of the protocol: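 Read-out: percent mortality after standard exposure periods. Test solutions were water dilutions of compound dissolved in acetone/alcohol (50:50) with emulsifier blends; leaves were sprayed to runoff on both surfaces and air-dried for one hour before exposure.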

For another assay, the system named is Rhynchosporium secalis. Briefly: Field tests against plant pathogens. The format is in vivo. The note with it: field test, crop barley. From the text:
(§1) Selected compounds were field tested against a variety of plant pathogens. […]

The next assay concerns Sphaerotheca fuliginea. Briefly: Field tests against plant pathogens. The note with it: field test, crop cucumber. The class given is in vivo.
Excerpt: as §1

The test system of the next assay is Pyrenophora teres. The assay can be described thus: Field tests against plant pathogens. The class given is in vivo. The note with it: field test, crop barley.
Excerpt: as §1

A further assay relates to Plasmopara viticola. The assay can be described thus: Field tests against plant pathogens. The format is in vivo. The note with it: field test, crop grape.
Excerpt: as §1

A further assay deals with Alternaria brassica. The assay can be described thus: Field tests against plant pathogens. The class given is in vivo. The note with it: field test, crop rape.
Excerpt: as §1

For assay [3], the system named is Puccinia recondita tritici (leaf rust). Briefly: Test 1 greenhouse foliar spray screen, leaf rust on wheat. The class given is in vivo. The note with it: for LEAF RUST: disease control rating, foliar spray on wheat, 400 ppm (+++ at 100 ppm).
The test system of assay [4] is Venturia inaequalis (apple scab). The assay can be described thus: Test 1 greenhouse foliar spray screen, apple scab on apple seedling. The format is in vivo. The note with it: for APPL SCAB: disease control rating, foliar spray on apple seedling, 400 ppm (+++ at 100 ppm).
The next assay deals with Phytophthora infestans. The format is in vivo. The note with it: field test.
For assay [5], the system named is melon aphids (Aphis gossypii Glover). Briefly: Mite/insect screen, MA. The note with it: Aphis gossypii, percent mortality, read-out: MA RESULTS %. The format is in vivo. A digest of the protocol: (§2)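 Percent mortality was scored after standard exposure periods, following spraying of leaves to runoff (both surfaces, 10 psi, 1 h drying) with water dilutions of compound in emulsifier-containing acetone/alcohol (50:50). Armyworms received excised treated leaves in dishes.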

Assay [6] has as its system Pseudoperonospora cubensis (downy mildew). The assay can be described thus: Test 1 greenhouse foliar spray screen, downy mildew on squash. The class given is in vivo. The settings on record: for DOWN MDEW: disease control rating, foliar spray on squash, 400 ppm (+++ at 100 ppm); for activity against downy mildew: summary statement in the description.
Assay [7] relates to southern armyworm (Spodopetra eridania Cramer). The assay can be described thus: Mite/insect screen, SAW. The format is in vivo. The note with it: Spodoptera eridania, percent mortality, read-out: SAW RESULTS %. A digest of the protocol:
as §2

The subject of assay [8] is Septoria tritici (leaf blotch). Briefly: Test 1 greenhouse foliar spray screen, leaf blotch on wheat. The settings on record: for LEAF BLOT: disease control rating, foliar spray on wheat, 400 ppm (+++ at 100 ppm). The format is in vivo.
For assay [9], the system named is Erysiphe graminis tritici (powdery mildew). Briefly: Test 1 greenhouse foliar spray screen, powdery mildew on wheat. The settings on record: for POWD MDEW: disease control rating, foliar spray on wheat, 400 ppm (+++ at 100 ppm). The format is in vivo.
Assay [10] has as its system Pyricularia oryzae (rice blast). The assay can be described thus: whole plant or invertebrate. The class given is in vivo. The note with it: for RICE BLAST: disease control rating, foliar spray on rice, 400 ppm (+++ at 100 ppm); for activity against rice blast: summary statement in the description.
For the next assay, the system named is Puccinia recondita. Briefly: Field tests against plant pathogens. The class given is in vivo. The settings on record: field test, crop wheat.
Excerpt: as §1

Assay [11] deals with Cercospora beticola (leaf spot). Briefly: Test 1 greenhouse foliar spray screen, leaf spot on sugar beet. The class given is in vivo.
The subject of assay [12] is Pseudocercosporella herpotrichoides. Briefly: Field tests against plant pathogens. The format is in vivo. The note with it: field test, crop wheat.
Excerpt: as §1

The subject of the next assay is Uncinula necator. Briefly: Field tests against plant pathogens. The class given is in vivo. The settings on record: field test, crop grape.
Excerpt: as §1

The next assay relates to Podosphaera leucotricha. Briefly: Field tests against plant pathogens. The class given is in vivo. The settings on record: field test, crop apple.
Excerpt: as §1

Assay [13] relates to Erysiphe graminis tritici. The assay can be described thus: Field tests against plant pathogens. The settings on record: field test, crop wheat. The class given is in vivo.
Excerpt: as §1

The next assay deals with Piricularia oryzae. The format is in vivo. The settings on record: field test, crop rice.
Another assay has as its system plant pathogens. The assay can be described thus: Fungicidal efficacy against a broad spectrum of plant pathogens (summary of screen). The format is in vivo. The note with it: summary statement in the description.
Where [14] appears, read: foliar, rate 200 ppm, foliar spray on squash.

Structures are written as SMILES. Read-outs that look alike come from different tables or passages of the source.

Experimental for CUCURBIT DOWNY MILDEW: (§3) The test compounds were formulated for application by dissolving 50 mg of the compound into 1.25 ml of solvent. The solvent was prepared by mixing 50 ml of "Tween 20" with 475 ml of acetone and 475 ml of ethanol. The solvent/compound solution was diluted to 125 ml with deionized water. The resulting formulation contains 400 ppm test chemical. Lower concentrations were obtained by serial dilution with the solvent-surfactant mixture.
(§4) The formulated technical compounds were sprayed on all foliar surfaces of the host plants (or cut berry) to past run-off. Single pots of each host plant were placed on raised, revolving pedestals in a fume hood. Test solutions were sprayed on all foliar surfaces. All treatments were allowed to dry and the plants were inoculated with the appropriate pathogens within 2-4 hours.
(§5) In the tables, the time given under "Time in hours" is the number of hours elapsing between treatment and inoculation. […] In such cases, curative activity was being tested. […] In such cases, residual or protectant activity was tested. […] The results were evaluated on a 1-9 rating scale. These ratings represent the following percent disease control: 1 = 0-19%, 2 = 20-29%, 3 = 30-39%, 4 = 40-59%, 5 = 60-74%, 6 = 75-89%, 7 = 90-96%, 8 = 97-99%, and 9 = 100%.
Experimental for CUCURBIT POWDERY MILDEW: as §3, §4, §5

On to `Fc1cccc2c(NCCc3ccccc3)ccnc12` [Example 5, 8-fluoro-N-(2-phenylethyl)-4-quinolinamine], for which the RESULTS with CUCURBIT DOWNY MILDEW (Ex. 5 alone 6.00 ppm, time 4 hours) is reported as 1.0; with CUCURBIT DOWNY MILDEW (Ex. 5 alone 12.00 ppm, time 4 hours), 7.0; with CUCURBIT DOWNY MILDEW (Ex. 5 alone 24.00 ppm, time 4 hours) it was 7.5; with CUCURBIT DOWNY MILDEW (Ex. 5 alone 48.00 ppm, time 4 hours (treatment before inoculation)), 8.0; in the assay on CUCURBIT POWDERY MILDEW (Ex. 5 alone 6.00 ppm), 1.0; in the assay with CUCURBIT POWDERY MILDEW (Ex. 5 alone 12.00 ppm), 1.0. Moreover, the figures for the RESULTS in the assay with CUCURBIT POWDERY MILDEW (Ex. 5 alone 24.00 ppm) and with CUCURBIT POWDERY MILDEW (Ex. 5 alone 48.00 ppm) were 5.0 and 6.0, respectively. For the same compound, the “GRAY MOLD” value in assay [1] was “- (0-19% control at 400 ppm)”. In the assay with corn rootworm (CRW RATE 12.00 PPM), the mortality at 12 ppm came out at 0%. Besides, the mortality at 200 ppm in [2] (SAW, SM & MA RATE 200 PPM) is 0%; in assay [5] (SAW, SM & MA RATE 200 PPM) it was 0%; in [7] (SAW, SM & MA RATE 200 PPM) it was 0%. Also, the “pathogens against which compounds of the invention showed activity” value (shortened to “pathogens against which compounds”) in the assay with Rhynchosporium secalis is reported as “Rhynchosporium secalis”; in the assay with Sphaerotheca fuliginea, “Sphaerotheca fuliginea”; in the assay with Pyrenophora teres it was “Pyrenophora teres”; in the assay with Plasmopara viticola, “Plasmopara viticola”; with Alternaria brassica it was “Alternaria brassica”; in the assay with Phytophthora infestans (crop potato), “Phytophthora infestans”. Besides, in the assay on Phytophthora infestans (crop tomato), the “pathogens against which compounds” value is “Phytophthora infestans”. The “LEAF RUST” value in [3] is “+++ (90-100% control at 100 ppm)”. Also, the “APPL SCAB” value in [4] is listed as “- (0-19% control at 400 ppm)”. Also, the “DOWN MDEW” value in [6] is “+++ (90-100% control at 100 ppm)”. Also, the “activity against downy mildew” value in [6] was “particularly excellent activity”. For the same compound, the “LEAF BLOT” value in assay [8] is reported as “+++ (90-100% control at 100 ppm)”. For the same compound, in assay [9], the “POWD MDEW” value is listed as “++ (90-100% control at 400 ppm)”. In [10], the “RICE BLAST” value is listed as “++ (90-100% control at 400 ppm)”. The “activity against rice blast” value in assay [10] is “particularly excellent activity”.

On to `Fc1cccc2c(NCCc3ccc4ccccc4c3)ccnc12` [Example 159, 8-fluoro-N-[2-(2-naphthyl)ethyl]-4-quinolinamine], for which the “GRAY MOLD” value in assay [1] is listed as “- (0-19% control at 400 ppm)”. Also, in the assay with corn rootworm (CRW RATE 12.00 PPM), the mortality at 12 ppm was 0%. Also, the mortality at 200 ppm in [2] (SAW, SM & MA RATE 200 PPM) stood at 0%; in assay [5] (SAW, SM & MA RATE 200 PPM), 0%; in assay [7] (SAW, SM & MA RATE 200 PPM), 0%. Also, the “pathogens against which compounds” value with Rhynchosporium secalis is given as “Rhynchosporium secalis”; in the assay on Puccinia recondita, “Puccinia recondita”; with Plasmopara viticola, “Plasmopara viticola”. The “LEAF SPOT” value in assay [11] (disease control rating, foliar spray on sugar beet, 400 ppm (+++ at 100 ppm)) was “+ (20-89% control at 400 ppm)”. Further, in assay [3], the “LEAF RUST” value is “+++ (90-100% control at 100 ppm)”. For the same compound, the “APPL SCAB” value in [4] is reported as “- (0-19% control at 400 ppm)”. Also, the “DOWN MDEW” value in [6] is “+++ (90-100% control at 100 ppm)”. For the same compound, in assay [6], the “activity against downy mildew” value is on record as “particularly excellent activity”. Moreover, in [8], the “LEAF BLOT” value was “+++ (90-100% control at 100 ppm)”. For the same compound, in assay [9], the “POWD MDEW” value is “++ (90-100% control at 400 ppm)”. For the same compound, in assay [10], the “RICE BLAST” value is “+++ (90-100% control at 100 ppm)”.

With `Cc1ccc(CCOc2ccnc3c(F)cccc23)cc1` [Example 212, 8-fluoro-4-[2-(4-methylphenyl)ethoxy]quinoline], the pest or weed control at 400 ppm in assay [1] (Botrytis cinerea, foliar, Test 1, spray on grape berries, disease control rating at 400 ppm / 100 ppm) was in the range of 0 to 19%; in [11] (Cercospora beticola, Test 1, foliar spray on sugar beet, disease control rating at 400 ppm / 100 ppm), 0 to 19%; in assay [3] (Puccinia recondita, foliar, Test 1, foliar spray on wheat, disease control rating at 400 ppm / 100 ppm), 90 to 100%; in assay [4] (Venturia inaequalis, Test 1, foliar spray on apple seedling, disease control rating at 400 ppm / 100 ppm, read-out: APPL SCAB), 90 to 100%; in assay [6] (Pseudoperonospora cubensis, foliar, Test 1, foliar spray on squash, disease control rating at 400 ppm / 100 ppm, read-out: DOWN MDEW), 90 to 100%; in assay [8] (Zymoseptoria tritici, Test 1, foliar spray on wheat, disease control rating at 400 ppm / 100 ppm, read-out: LEAF BLOT), 90 to 100%. Also, the pest or weed control at 400 ppm in assay [9] (Blumeria graminis, foliar, Test 1, foliar spray on wheat, disease control rating at 400 ppm / 100 ppm, read-out: POWD MDEW) fell in the range of 90 to 100%; in assay [10] (Pyricularia oryzae, foliar, read-out: RICE BLAST, Test 1, foliar spray on rice, disease control rating at 400 ppm / 100 ppm), 90 to 100%. Besides, the mortality at 12 ppm in the assay on corn rootworm (CRW rate 12.00 ppm) is 0%. Also, the mortality at 200 ppm in [2] (setting [14]), in assay [5] (setting [14]) and in assay [7] (setting [14]) was 0% each time. Moreover, the “pathogens against which compounds” value with Rhynchosporium secalis is “Rhynchosporium secalis”; in assay [12] it was “Pseudocercosporella herpotrichoides”; in the assay with Uncinula necator it was “Uncinula necator”; with Sphaerotheca fuliginea, “Sphaerotheca fuliginea”; with Podosphaera leucotricha, “Podosphaera leucotricha”; with Pyrenophora teres, “Pyrenophora teres”. Besides, the “pathogens against which compounds” value in [13] is on record as “Erysiphe graminis tritici”; with Plasmopara viticola, “Plasmopara viticola”; in the assay with Alternaria brassica it was “Alternaria brassica”; in the assay with Piricularia oryzae it was “Piricularia oryzae”. Moreover, in the assay on plant pathogens, the “activity against a broad spectrum of plant pathogens” value is listed as “particularly excellent activity”. In addition, the “activity against downy mildew” value in [6] is on record as “particularly excellent activity”. The “activity against rice blast” value in [10] is reported as “particularly excellent activity”.
